Data published in the supplement of paper PMC10307832.

Legend:
Experiment in all cases: relative viability (nuclei count vs DMSO), 5 days (fraction); higher = more cells survive
[1] = compound: CN[C@@H]1C[C@H]2O[C@@](C)([C@@H]1OC)n1c3ccccc3c3c4c(c5c6ccccc6n2c5c31)C(=O)NC4 [Staurosporine] + Nc1nc2[nH]cc(CCc3ccc(C(=O)N[C@@H](CCC(=O)O)C(=O)O)cc3)c2c(=O)[nH]1 [Pemetrexed] (partner 0.2 µM)
In short: (§1)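 Lung cancer cell lines in 1536-well plates got either a single drug or a fixed anchor-drug dose together with five library-drug doses (not always all listed) in √10 steps, by pin tool, on the day after seeding. Nuclei were counted after 5 days, and relative viability is the treated-to-vehicle ratio of nuclei counts. Values are medians of duplicate plates.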

Sulindac + Bortezomib = compound: CC1=C(CC(=O)O)c2cc(F)ccc2/C1=C\c1ccc([S+](C)[O-])cc1 [Sulindac] + CC(C)C[C@H](NC(=O)[C@H](Cc1ccccc1)NC(=O)c1cnccn1)B(O)O [Bortezomib] (partner 0.002 µM)
In short: as §1

Sulindac + Linsitinib = compound: CC1=C(CC(=O)O)c2cc(F)ccc2/C1=C\c1ccc([S+](C)[O-])cc1 [Sulindac] + C[C@]1(O)C[C@@H](c2nc(-c3ccc4ccc(-c5ccccc5)nc4c3)c3c(N)nccn32)C1 [Linsitinib] (partner 1 µM)
In short: as §1

5-Fluorouracil + OSI-027 = compound: O=c1[nH]cc(F)c(=O)[nH]1 [5-Fluorouracil] + COc1cccc2cc(-c3nc([C@H]4CC[C@H](C(=O)O)CC4)n4ncnc(N)c34)[nH]c12 [OSI-027] (partner 0.5 µM)
In short: as §1

Cell Line	relative viability ([1]; first compound 0.005 µM)	relative viability ([1]; first compound 0.05 µM)	relative viability ([1]; first compound 0.1581 µM)	relative viability ([1]; first compound 0.5 µM)	relative viability (Sulindac + Bortezomib; first compound 0.08 µM)	relative viability (Sulindac + Bortezomib; first compound 0.253 µM)	relative viability (Sulindac + Bortezomib; first compound 0.8 µM)	relative viability (Sulindac + Bortezomib; first compound 2.53 µM)	relative viability (Sulindac + Bortezomib; first compound 8 µM)	relative viability (Sulindac + Linsitinib; first compound 0.08 µM)	relative viability (Sulindac + Linsitinib; first compound 0.253 µM)	relative viability (Sulindac + Linsitinib; first compound 0.8 µM)	relative viability (Sulindac + Linsitinib; first compound 2.53 µM)	relative viability (Sulindac + Linsitinib; first compound 8 µM)	relative viability (5-Fluorouracil + OSI-027; first compound 0.02 µM)	relative viability (5-Fluorouracil + OSI-027; first compound 0.2 µM)	relative viability (5-Fluorouracil + OSI-027; first compound 0.6325 µM)	relative viability (5-Fluorouracil + OSI-027; first compound 2 µM)	relative viability ([1]; first compound 0.01581 µM)
201T	0.339	0.261	0.253	0.214	1.12	1.1	1.06	1.12	1.08	1.06	1.04	1.1	1.02	1.01	0.964	0.274	0.161	0.128	
A549										0.532	0.535		0.572	0.641					
A-427	0.633	0.335	0.209	0.175	0.899	0.976	1.08	0.965	1.17	1.1	1.14	1.11	1.14	1.11	0.461	0.557	0.359	0.259	0.58
ABC-1					0.328	0.281	0.279	0.311	0.31	1.22	0.806	0.627	0.629	0.741	0.453	0.518	0.53	0.261	
BEN	0.831	0.523	0.261	0.303	0.829	0.889	0.714	0.748	0.947	1.02	0.892	0.571	0.967	1.07	0.303	0.312	0.315	0.326	0.749
CAL-12T	0.345	0.229	0.191	0.124	0.999	1.06	0.852	0.918	1.26	0.787	0.858	0.593	0.795	0.705	0.771	0.625	0.385	0.352	0.248
COR-L23	0.191	0.161	0.135	0.0959	1.17	1.14		1.2	1.23	1.18	0.925		0.906	0.999	0.794	0.539	0.323	0.245	0.151
COR-L 105	0.655	0.52	0.428	0.293	0.819	0.939	0.626	0.724	1.09	1.1	0.857	0.729	0.992	1.13	0.649	0.899	0.66	0.443	0.554
Calu-6					1.11	1.14	0.915	1.02	1.13	1.29	1.07	0.738	1.03	1.11					
ChaGo-K-1	0.262	0.251	0.141	0.163	1.07	1.1	0.885	0.882	1.35						0.608	0.536	0.401	0.425	
EBC-1					0.585	0.557	0.56	0.474	0.663	0.937	1.16	0.509	1.04	0.989					
EKVX	0.197	0.189	0.255	0.141	1	0.999	0.859	1.04	1.05	0.872	1	0.721	0.92	1.04			0.148	0.134	0.139
EMC-BAC-2	0.362	0.258	0.255	0.224	1.14	1.1	0.824	1.06	1.08	0.894	0.882	0.726	0.809	0.835	0.363	0.407	0.376	0.361	0.273
EPLC-272H	0.213	0.146	0.0971	0.0691	1.05		0.603	1.12	0.813	1.04		0.751	1.17	1.15	0.272	0.257	0.263	0.212	0.13
H3255	0.481	0.305	0.213	0.135	0.714	0.684	0.735	0.891	0.916	0.923	1.03	0.745	1.02	1.1	0.609	0.686	0.699	0.574	0.392
HARA	0.195	0.134	0.138	0.168	1.2	1.09		1.14	1.44	1.23	1.09		1.06	0.851	0.475	0.737	0.559	0.308	0.167
HCC-15	0.217	0.189	0.157	0.134	1.34	1.08	0.676	1.07	1.07	0.966	0.868	0.739	0.913	0.921	0.781	0.718	0.442	0.311	0.188
HCC-44	0.629	0.583	0.27	0.235	0.89	0.882	0.853	0.904	0.966	0.769	0.729	0.707	0.702	0.786	0.664	0.479	0.483	0.31	
HCC-78	0.978	0.882	0.927	0.881	0.432	0.534	0.379	0.607	0.532	0.521	0.493	0.439	0.454	0.501	0.618	0.369	0.335	0.306	0.893
HCC-366	0.133	0.0702	0.0274	0.0293	1.9	1.06	0.306	1	1.33	0.567	0.759	0.183	0.787	1.03	1.18	0.868	0.439	0.144	
HCC-827	0.266	0.246	0.171	0.154	1.01	1.13	0.93	1.06	1.11	0.932	0.939	0.988	0.937	0.967	0.767	0.832	0.681	0.391	0.278
HOP-62	0.267	0.134	0.113	0.0837	0.913	1.03	1.02	0.809	0.564	0.858	0.937	1.14	1.03	1.16	0.87	0.938	0.846	0.633	0.133

Cell Line	relative viability ([1]; first compound 0.005 µM)	relative viability ([1]; first compound 0.05 µM)	relative viability ([1]; first compound 0.1581 µM)	relative viability ([1]; first compound 0.5 µM)	relative viability (Sulindac + Bortezomib; first compound 0.08 µM)	relative viability (Sulindac + Bortezomib; first compound 0.253 µM)	relative viability (Sulindac + Bortezomib; first compound 0.8 µM)	relative viability (Sulindac + Bortezomib; first compound 2.53 µM)	relative viability (Sulindac + Bortezomib; first compound 8 µM)	relative viability (Sulindac + Linsitinib; first compound 0.08 µM)	relative viability (Sulindac + Linsitinib; first compound 0.253 µM)	relative viability (Sulindac + Linsitinib; first compound 0.8 µM)	relative viability (Sulindac + Linsitinib; first compound 2.53 µM)	relative viability (Sulindac + Linsitinib; first compound 8 µM)	relative viability (5-Fluorouracil + OSI-027; first compound 0.02 µM)	relative viability (5-Fluorouracil + OSI-027; first compound 0.2 µM)	relative viability (5-Fluorouracil + OSI-027; first compound 0.6325 µM)	relative viability (5-Fluorouracil + OSI-027; first compound 2 µM)	relative viability ([1]; first compound 0.01581 µM)
IA-LM					0.811	0.91		0.977	0.89	0.527	0.681		0.826	0.423					
LC-2-ad	0.277	0.209	0.102	0.0993	1.31	0.992	0.969	0.97	1.12	0.938	0.795	0.816	0.881	0.933	0.91	0.582	0.404	0.322	0.21
LCLC-97TM1	0.185	0.186	0.149	0.117	0.861	0.946		0.788	0.806	0.187	0.167	0.157		0.209	0.392	0.531	0.557	0.379	0.111
LCLC-103H	0.405	0.336	0.247	0.213	1.24	1.11	0.948	1.05	1.21	1.18	1.22	0.94	1.04	1.2	0.503	0.59	0.379	0.311	0.238
LK-2	0.331	0.269	0.0688	0.0539						0.464	0.376	0.532	0.417	0.577	0.196	0.188	0.199	0.165	0.255
LOU-NH91	0.339	0.336	0.255	0.274	0.554	0.516	0.601	0.531	0.459	0.877	0.916	0.858	0.933	1.09	0.694	0.788	0.692	0.432	0.304
NCI-H358	0.165	0.102	0.102	0.0764						0.777	0.881	0.643	0.661	1.09	0.819	0.888	0.508	0.289	0.158
NCI-H522	1.08	0.847	0.742	0.579											0.714	0.714	0.722	0.705	0.7
NCI-H727					0.822	0.884	0.665	0.742	0.912	0.29	0.224	0.27	0.243	0.34	0.639	0.651	0.647	0.574	
NCI-H1299					1.09	1.04	1.04	1.03	1.05	1.14	1.18	0.898	1.02	1.01					
NCI-H1395	0.789	0.316	0.31	0.255						1.09	1.07	0.993	0.948	1.18	0.505	0.738	0.579	0.684	0.341
NCI-H1623															0.384	0.339	0.339	0.323	
NCI-H1648	0.582	0.344	0.325	0.42											0.246	0.269	0.264	0.245	0.321
NCI-H1650	0.325	0.209	0.23	0.104	0.31	0.193	0.224	0.204	0.213						0.515	0.496	0.383	0.349	0.239
NCI-H1703					0.303	0.394	0.225	0.457	0.284	0.673	0.873	0.561	0.761	1.15					
NCI-H1793	0.865	0.371	0.154	0.125						0.856	0.77	0.471	1.12	1.12	0.283	0.369	0.303	0.207	
NCI-H1944	0.626	0.26	0.164	0.185						1.19	1.14	1	1.24	1.34	0.48	0.423	0.296	0.188	0.311
NCI-H2170	0.247	0.243	0.101	0.173											0.681	0.594	0.459	0.37	
NCI-H2342	0.773	0.433	0.315	0.319											0.698	0.731	0.735	0.638	0.746
SK-MES-1	0.543		0.145	0.141						1.11	1.22	0.809	1.08	1.18	0.577	0.367	0.253	0.196	0.277
SW 900	0.404	0.296	0.161	0.115											0.505	0.501	0.44	0.423	0.356
